Data on three molecules can be found in patent US11572373B2, “Maytansinoid-based drug delivery systems” (LADRX CORPORATION, priority 2017, dated 2023).

The structures appear in SMILES notation. Where two headings read alike, the source gives them in different places. Marks after values point to notes of the source that are not given here.

Data set [1] is described as follows: Stability of maytansinoids and maytansinoid-HSA conjugates in CD1 mouse plasma. It is filed as in vitro ADME. The note with it: 37° C., 30 μM. The protocol: (§1) For studying the stability of the maytansinoids as wells as the maytansinoid-HSA conjugates in CD1 and human plasma the compounds were incubated at 37° C. for 24 hours. Remaining free maytansinoid or release of the respective maytansinoid was quantified by LC-MS/MS (or HPLC) at certain time points.
(§2) Pooled CD1 mouse or human plasma (K2EDTA, Innovative research) was centrifuged (1 min at 12,044 g). The supernatant was first filtered through a filter needle (5 μm, sterile, Becton Dickinson) and subsequently through a cellulose acetate membrane (0.45 μm, sterile, Carl Roth). The filtered plasma (1710 μL) was preincubated at 37° C. for 30 min in a heating block. The free maytansinoid or albumin-binding maytansinoid as a 300 μM stock solution in DMSO (190 μL) was added to the preincubated plasma sample to produce a 30 μM solution of the respective maytansinoid or maytansinoid-HSA conjugate. The mixture was allowed to react for 10 min at 37° C. and then at each time point (0, 1, 2, 3, 4, 5, 21, and 24 hours) three samples (70 μL) were taken into a 96-well plate, sealed with a plastic mat, immediately frozen with liquid nitrogen and stored at −20° C. At the end of the experiment, the 96-well plate was thawed at room temperature. The samples (30 μL) were then directly transferred via a multichannel pipette into a 96-well Impact™ protein precipitation plate (Strata®) which was once washed with MeCN (150 μL) and then loaded with the internal standard (120 μL, MeCN containing 5 μg/mL maytansine). The Impact™ precipitation plate was sealed with a silicone mat and shaken for 2 min 420 rpm. The Impact™ precipitation plate was then placed onto a 96-well sample manifold and the filtrate was collected into another 96-well plate by applying mild vacuum. The 96-well plate was sealed with a silicone mat and kept at room temperature until LC-MS/MS quantification. The filtrate was injected into the LC-MS for quantification using the MRM mode. […]

Data set [2] in a line: Stability of maytansinoids and maytansinoid-HSA conjugates in human plasma. It is filed as in vitro ADME. The note with it: 37° C., 30 μM. Here is the method: as §1, §2
A short description of data set [3]: In vitro cytotoxicity in different cell lines using the CellTiter-Blue Cell Viability Assay. The note with it: Homo sapiens; geometric mean over the n cell lines tested, 96 h treatment, CellTiter-Blue; read-out: Geomean IC50. It is filed as cell-based, human. For orientation: Resazurin is reduced to fluorescent resorufin, in cell work by metabolically active cells.

For data set [4], the system named is human tumor xenograft models. The data set can be described thus: Antitumor activity in human tumor xenograft mice models. The data set is classed as in vivo. The note with it: five human tumor xenograft models in nude mice, i.v. on day 1, 8, 15, and 22. An excerpt: This included starting tumor volumes in the range of approximately 80-110 mm^3 but also initial starting tumor volumes of up to approximately 400 mm^3. Furthermore, in most cases therapy with albumin-binding maytansinoids 30 and 31 induced long-term remissions and a decrease in Relative Tumor Volume (RTV). […] Experimental procedure and the results in the tumor-bearing mice models are described in detail in Examples 11-19 and FIGS. 3-16.
Female immunodeficient NMRI nude mice, from Charles River, received unilateral tumor implants subcutaneously in the left flank while under isoflurane anesthesia with human cancer tumors until tumors were palpable and had reached a volume of 80-200 mm^3 (unless otherwise stated).
Animals were kept in cages, the temperature inside the cages maintained at 25±1° C. with a relative humidity of 45-65% and an air change rate in the cage of 60-fold per hour. They were kept under a 14 h light: 10 h dark, artificial light cycle. The animals were fed with autoclaved Teklad Global 19% Protein Extruded Diet (T.2019S.12) from Envigo RMS SARL and had access to sterile filtered and acidified (pH 2.5) tap water, which was changed twice weekly. Feed and water were provided ad libitum. […] Animals were routinely monitored twice daily on working days and daily on Saturdays and Sundays. […] Relative body weights (RBW) of individual animals were calculated by dividing the individual absolute body weight on day X (BWx) by the individual body weight on the day of randomization multiplied by 100%. The tumor volume was determined by a two-dimensional measurement with calipers on the day of randomization (day 0) and then twice weekly. Tumor volumes were calculated according to the following equation: Tumor Vol [mm^3]=1 [mm]×w^2 [mm^2]×0.5, where “1” is the length and “w” is width of the tumor. The relative volume of an individual tumor on day X (RTVx) was calculated by dividing the absolute individual tumor volume [mm^3] of the respective tumor on day X (Tx) by the absolute individual tumor volume of the same tumor on the day of randomization multiplied by 100%. […]

A short description of data set [5]: Stability and release kinetics of maytansinoid-HSA conjugates in buffer solution at pH 4.0 and pH 7.4. It is filed as physicochemical. The following applies: maytansinoid-HSA conjugate, PBS pH 7.4, 37° C., measured at 100 μM. Here is the method: For preparing HSA conjugates of albumin-binding maytansinoids, HSA (200 μM: 361.8 μL, 1078 μM free Cys34; 100 μM: 180.9 μL, 1078 μM free Cys34) was diluted with PBS buffer (4 mM sodium phosphate, 150 mM NaCl, pH 7.4) (200 μM: 678.2 μL; 100 μM: 859.1 μL) and DMSO (200 μM: 130.0 μL; 100 μM: 195.0 μL) and incubated in a heating block at 37° C. for 30 minutes. The albumin-binding maytansinoid was added as a 2 mM stock solution in DMSO (200 μM: 130.0 μL; 100 μM: 65.0 μL) to the preincubated HSA sample to produce a 200 μM or 100 μM solution of maytansinoid-prodrug and 300 μM or 150 μM of free Cys34. The mixture having a pH of 7.4 was allowed to react for 10 min at 37° C. and was then analyzed hourly for 24 hours by RP-HPLC (Phenomenex Aeris WP XB-C18, 3.6 μm, 250×4.6 mm).
For studying the release kinetics at pH 4.0 the mixture was acidified with a mixture of 50 mM sodium acetate buffer pH 3.0 (200 μM: 119.3 μL; 100 μM: 125.2 μL) and 1 M HCl (200 μM: 12.7 μL; 100 μM: 6.8 μL) to reach pH 4.0. The mixture was subsequently analyzed hourly for 24 hours by RP-HPLC (Phenomenex Aeris WP XB-C18, 3.6 μm, 250×4.6 mm).
The following RP-HPLC conditions were used: Phenomenex Aeris WP XB-C18 3.6 μm, 250×4.6 mm; eluent A (100% 20 mM Tris buffer pH 8.0) and eluent B (90:10, MeCN: water) eluting with a gradient of eluent B (25% 0-0.5 min, 25-35% 0.5-2.5 min, 35-85% 2.5-16 min, 85-95% 16-17 min, 95% 17-20 min, 95-25% 20-25 min, 25% 25-30 min, flow rate 1.0 mL/min). Column oven temperature 37° C.; autosampler temperature 37° C.; 20 μL of injection volume.
To quantify the percentage of free drug released, standard curves of the free maytansinoids were prepared at different concentrations (200 μM, 100 μM, 50 μM, 25 μM and 12.5 μM). The area under the curve (AUC) was determined at 250 nm.

Data set [6] deals with T1, albumin (Homo sapiens, UniProt P02768).
T1 construct: tissue Zen-Bio; host or cells: pooled human whole blood (K2EDTA, 36 donors) and plasma prepared from it
T1 sequence (P02768 25-609): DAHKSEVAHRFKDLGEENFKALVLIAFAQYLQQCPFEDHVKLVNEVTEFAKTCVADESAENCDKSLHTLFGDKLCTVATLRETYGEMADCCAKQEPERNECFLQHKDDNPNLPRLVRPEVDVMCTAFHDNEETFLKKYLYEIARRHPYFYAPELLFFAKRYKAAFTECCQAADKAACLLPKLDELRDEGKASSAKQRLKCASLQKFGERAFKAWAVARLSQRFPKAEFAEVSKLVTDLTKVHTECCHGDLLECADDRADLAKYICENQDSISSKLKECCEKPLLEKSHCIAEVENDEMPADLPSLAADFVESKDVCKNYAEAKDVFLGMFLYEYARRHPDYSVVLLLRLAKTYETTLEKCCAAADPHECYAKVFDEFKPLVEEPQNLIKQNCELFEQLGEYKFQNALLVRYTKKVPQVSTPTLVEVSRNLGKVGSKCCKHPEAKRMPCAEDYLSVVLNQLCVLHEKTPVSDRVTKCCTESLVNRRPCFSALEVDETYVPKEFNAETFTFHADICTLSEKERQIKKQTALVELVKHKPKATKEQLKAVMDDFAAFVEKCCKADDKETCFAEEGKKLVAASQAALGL
Kind of data set: in vitro. It is filed as in vitro ADME. The note with it: 37° C., 12.0 μM, read-out: % bound (converted). Here is the method:
To study the binding kinetics of the albumin-binding maytansinoids in pooled human plasma and pooled human whole blood, the compounds were incubated together with pooled human plasma at 37° C. and samples were taken at specified time points. Remaining albumin-binding maytansinoids were quantitated by HPLC.
To study the binding kinetics in human whole blood, the blood (K2EDTA, 36 donors, Zen-Bio; 900 μL) was preincubated at 37° C. for 30 min in a heating block. To study the binding kinetics in pooled human plasma, the pooled whole blood was centrifuged (10 min, 1811 g), the supernatant plasma was collected and then preincubated at 37° C. for 30 min.
The albumin-binding maytansinoid was added to the preincubated whole blood/plasma sample as a 10-fold dilution in PBS of a 1.2 mM stock solution in 2.5% propylene glycol in 10 mM sodium phosphate buffer and 1.48 mM citrate (100 μL) to produce a 12.0 μM solution of the respective albumin-binding maytansinoid. Samples (190 μL) were taken after 15 s, 2 min, 4 min, 8 min and 15 min. The samples were directly added to 760 μL MeCN containing maytansine (5 μg/mL) as an internal standard and vortexed for 1 min. After centrifugation (1 min at 12,044 g) the supernatant (850 μL) was concentrated under high vacuum. The residue was taken up in DMSO/water (1:1 v/v; 95 μL) and then analyzed by RP-HPLC. Percentage of binding was determined by comparison of the area under the curve (AUC) at 220 nm of the albumin-binding maytansinoid relative to a control sample (100% value) in PBS buffer. All experiments were performed in triplicates.
HPLC method: Phenomenex Kinetex Polar C18, 2.6 μm, 100 Å, 150×4.6 mm; eluent A (95:5 5 mM ammonium acetate: MeCN) and eluent B (5:95 5 mM ammonium acetate: MeCN) eluting with a gradient of eluent B (30% 0-0.5 min, 30-95% 0.5-9.0 min, 95% 11.0 min, 95-30% 11.0-14.5 min, 30% 15.0 min, flow rate=1.0 mL/min). Column oven temperature ambient temperature; autosampler temperature 4° C.; 50 μL of injection volume.

Broadly, the IC50 is the concentration needed to halve the response being measured. For `COc1cc2cc(c1Cl)N(C)C(=O)C[C@H](OC(=O)Cc1ccc(C(C)=O)cc1)[C@]1(C)O[C@H]1[C@H](C)[C@@H]1C[C@@](O)(NC(=O)O1)[C@H](OC)/C=C/C=C(\C)C2` [Compound 4], the “% of free maytansinoid remaining after 24 h” value in data set [1] was 65.2%; in data set [2] it was 75.6%. The IC50 in data set [3] was determined as 160 pM.

For the molecule `COc1cc2cc(c1Cl)N(C)C(=O)C[C@H](OC(=O)[C@H](C)N(C)C(C)=O)[C@]1(C)O[C@H]1[C@H](C)[C@@H]1C[C@@](O)(NC(=O)O1)[C@H](OC)/C=C/C=C(\C)C2` [Maytansine, maytansine, reference compound], in data set [3], the 50% inhibitory concentration (IC50) was 220 pM. In data set [4], the antitumor activity result was “principally inactive in the tested models or only showed marginal tumor inhibition”.

Consider `COc1cc2cc(c1Cl)N(C)C(=O)C[C@H](OC(=O)Cc1ccc(/C(C)=N/NC(=O)c3ccc(NC(=O)CCCCCN4C(=O)C=CC4=O)cc3S(=O)(=O)O)cc1F)[C@]1(C)O[C@H]1[C@H](C)[C@@H]1C[C@@](O)(NC(=O)O1)[C@H](OC)/C=C/C=C(\C)C2` [Compound 30], for which the “free maytansinoid after 24 h at pH 7.4” value in data set [5] is recorded as 9.6%**. The fraction unbound in data set [6] (blood, pooled human whole blood, 15 s) was 0.017; in data set [6] (blood, pooled human whole blood, 8 min) it was 0.015; in data set [6] (plasma, pooled human plasma, 15 s) it was 0.036; in data set [6] (plasma, pooled human plasma, 8 min), 0.015. In addition, in data set [4], the antitumor activity entry is “partial and complete tumor regressions”.
